# From patent US8063012B2, “Neuroprotective peptide inhibitors of AP-1 signaling and uses therefor” (Phylogica Limited, priority 2006, dated 2011)
# Non-standard residues stand in square brackets, D forms with d. Residues, ends and D or L forms follow the SMILES beside them.
# Experiments:
# in vivo = settings: male, Sprague-Dawley, rat, iv, 3 mg/kg
# Method: Male Sprague-Dawley rats (276-310 g) were dosed with peptide by i.v injection via the jugular vein. The calculated dose for each animal was 3 mg/kg of body weight and each isoflurane anaesthetised animal received dosing volumes of 0.1 ml/100 g of body weight of a 3 mg/ml solution. The remaining dosing solutions were subjected to a similar protocol as the solutions that were administered to the animals and were collected pre-labeled Maxymum Recovery (Axygen Scientific) low binding tubes, ready for quantification. Blood samples (0.2 ml) were collected just prior to dosing (pre-dose) and at various time points post-dosing according to the experimental schedule. Blood samples were collected from the jugular vein from the anaesthetized and transferred into 0.5 ml pre-labeled EDTA micro-centrifuge tubes and placed on ice. The tubes were then centrifuged for 5 mins at 3,000 RPM in a bench top microcentrifuge (4° C.). The plasma was transferred to pre-labeled 1.7 ml tubes, stored in a −80° C. freezer prior to analysis by LC-MS.
# Analysis: Sample Preparation: 50 μl of plasma was added to 150 μl of precipitating solvent (75% acetonitrile/25% water+2% formic acid) and vortexed for 15 sec. The solution was centrifuged at 11,000 rpm at 4° C. for 5 mins. 100 μl of the supernatant was transferred to a HPLC vial for quantification. […]
# in vitro = in vitro ADME; settings: human, plasma
# Method: A stock solution of 200 μg/ml of peptide in PBS was diluted into 1.5 ml of human plasma or PBS to achieve a final concentration of 10 μg/ml. Of this solution, 50 μl was then dispensed into 200 μl Max Recovery tubes (Axygen Scientific) in triplicate for each time point needed in the study. The tubes were incubated at 37° C. and at the appropriate time point, they were removed from the incubator and 150 μl of extraction solution (75% acetonitrile/25% water+2% formic acid) was added. The tubes were vortexed for 15 sec and then centrifuged at 11,000 RPM for 5 mins at 4° C. Then, 100 μl of the supernatant was transferred into HPLC vials for analysis.
# A fixed mobile phase was used so that all of the different charged species of peptide would elute at the same time, allowing a mass measurement of non-degraded material. Injection volume: 10 μl; Column: Phenomenex Aqua C18 5 μM 150 mm×4.6 mm; Flow: 0.8 ml/min; 85% Mobile phase A: 4% formic acid in nanopure water; 15% Mobile phase B: acetonitrile; RT: 1.3 minutes; Stop time: 3.0 minutes. Mass Spectrometer: MS-03 LC/MSD Trap XCT Ultra.
# [1] = system: primary cortical neuronal cultures; test: Glutamate excitotoxicity in primary cortical neuronal cultures, neuronal viability by MTS assay; type: cell-based, rat; settings: Sprague-Dawley, rat, 18 h
# Method: Neurons were resuspended in Neurobasal (NB; Invitrogen) containing 2% B27 supplement (B27; Invitrogen). Before seeding, culture vessels comprising either a 96-well plastic plate or 24-well plastic plate with 13 mm glass coverslips (ProSciTech, Australia), were coated with poly-D-lysine (50 μg/mL; 70-150K; Sigma) and incubated overnight at room temperature. […] Neurons were plated to obtain approximately 10,000 viable neurons for each well of a 96-well plate, or 200,000 viable neurons per well of a 24-well plate, on day in vitro (DIV) […]. […] On DIV 4, one third of the culture medium was removed and replaced with fresh NB/2% B27 containing the mitotic inhibitor, cytosine arabinofuranoside (Sigma) at 1 μM concentration. On DIV 8, one half of the culture medium was replaced with NB/2% B27.
# To induce glutamate excitotoxicity in the cortical neuronal cultures (96-well plate format), 50 μl of conditioned media containing 200 μM glutamate was added to culture wells containing 50 μl conditioned media (100 μM final glutamate concentration). Cultures were incubated at 37° C. in a CO2 incubator for 5 minutes, after which time the media was replaced with 100 μl of 50% NB/2% N2 and 50% balance salt solution (NB/N2:BSS).
# Untreated and glutamate-treated control samples received media additions with and without glutamate respectively.
# Eighteen hours after glutamate exposure, neuronal cultures were examined by light microscopy for qualitative assessment of neuronal damage. Neuronal viability was quantitatively measured by 3-(4,5,dimethyliazol-2-yl)-5-(3-carboxymethoxy-phenyl)-2-(4-sulfophenyl)-2H-tetrazolium salt (MTS) assay (Promega, Australia). The MTS assay measures the mitochondrial conversion of the tetrazolium salt to a water-soluble brown formazan salt, which is detected spectrophotometrically at 495 nm. MTS absorbance data was converted to reflect proportional cell viability relative to both the untreated and glutamate treated controls. […] All assays were performed with quadruplicate sister neuronal cultures repeated a minimum of four times independently.
# [2] = rabbit blood; cited from earlier work
Molecule,half-life (in vivo) [h],half-life at 10 μg/ml (in vitro) [h],neuronal viability following glutamate excitotoxicity ([1]; 5 μM) [%],neuronal viability following glutamate excitotoxicity ([1]; 1 μM) [%],in vivo half life [2]
CC[C@@H](C)[C@@H](NC(=O)[C@@H](CCC(=O)O)NC(=O)[C@@H](CO)NC(=O)[C@@H](CO)NC(=O)[C@@H](CO)NC(=O)[C@@H](CCCCN)NC(=O)[C@@H](CCCNC(=N)N)NC(=O)[C@@H](CCC(=O)O)NC(=O)[C@H](N)CCCNC(=N)N)C(=O)NCC(=O)NCC(=O)N[C@H](CO)C(=O)N[C@H](CCCNC(=N)N)C(=O)N[C@@H](C(=O)N[C@H](CO)C(=O)N[C@H](CCC(N)=O)C(=O)N[C@H](Cc1ccc(O)cc1)C(=O)N[C@H](C)C(=O)NCC(=O)N[C@H](CCCNC(=N)N)C(=O)N[C@H](CCCNC(=N)N)C(=O)N[C@H](CCCNC(=N)N)C(=O)N[C@H](CCC(N)=O)C(=O)N[C@H](CCCNC(=N)N)C(=O)N[C@H](CCCNC(=N)N)C(=O)N[C@H](CCCCN)C(=O)N[C@H](CCCCN)C(=O)N[C@H](CCCNC(=N)N)C(=O)NCC(=O)O)[C@H](C)CC [PYC35D-TAT] (H-[dR][dE][dR][dK][dS][dS][dS][dE][dI]GG[dS][dR][dI][dS][dQ][dY][dA]G[dR][dR][dR][dQ][dR][dR][dK][dK][dR]G-OH; N-terminus and C-terminus assumed),0.583,> 12,59,–,–
CC[C@@H](C)[C@@H](NC(=O)[C@@H](CCCCN)NC(=O)[C@H]1CCCN1)C(=O)N[C@H](CO)C(=O)N[C@H](CCC(N)=O)C(=O)N[C@H](Cc1ccc(O)cc1)C(=O)NCC(=O)N[C@H](CCC(N)=O)C(=O)N[C@H](CCCNC(=N)N)C(=O)N[C@H](CCCNC(=N)N)C(=O)N[C@H](CCCNC(=N)N)C(=O)NCC(=O)N[C@H](CCC(N)=O)C(=O)N[C@H](CC(C)C)C(=O)NCC(=O)NCC(=O)N[C@H](CCCNC(=N)N)C(=O)N[C@H](CCCNC(=N)N)C(=O)N[C@H](CCCNC(=N)N)C(=O)N[C@H](CCC(N)=O)C(=O)N[C@H](CCCNC(=N)N)C(=O)N[C@H](CCCNC(=N)N)C(=O)N[C@H](CCCCN)C(=O)N[C@H](CCCCN)C(=O)N[C@H](CCCNC(=N)N)C(=O)NCC(=O)O [PYC36D-TAT] (H-[dP][dK][dI][dS][dQ][dY]G[dQ][dR][dR][dR]G[dQ][dL]GG[dR][dR][dR][dQ][dR][dR][dK][dK][dR]G-OH; N-terminus and C-terminus assumed),1.67,> 12,82,44,–
tissue plasminogen activator [tPA],–,–,–,–,a few minutes
